Values quoted from earlier work, collected in US4970081A, “Controlled-release, low-dose aspirin formulation and method of treating vascular occlusive disease therewith” (Sterling Drug Inc., priority 1989, dated 1990).

How the values were obtained:
[1] = prior art dosage forms
[2] = tested on: endothelial cyclooxygenase; conditions: at the doses given in most clinical trials
prostacyclin (PC) = conditions: 1 mg every 30 minutes for 10 hours
[3] = tested on: vascular occlusive events; conditions: oral aspirin, patients
thromboxane B2 (TX) = conditions: 1 mg every 30 minutes for 10 hours; at 10 hours
[4] = tested on: cyclooxygenase in platelets; conditions: by acetylating cyclooxygenase in platelets

release rate [1] [mg per hour]	Compound	effect on endothelial cyclooxygenase [2]	urinary PC (prostacyclin (PC))	protection from vascular occlusive events [3]	decrease in serum TX (thromboxane B2 (TX)) [%]	effect on platelet adhesiveness [4]
4.5	Nc1ccc(S(N)(=O)=O)cc1 [Sulfanilamide]	–	–	–	–	–
–	CC(=O)Oc1ccccc1C(=O)O [aspirin]	inhibits endothelial cyclooxygenase	unaltered	statistically significant protection	66	significantly decreases platelet adhesiveness
